Reference: PubChem BioAssay AID248 (DTP/NCI, 2004)
Values joined by “and” are separate entries in the source; they are usually repeats but may differ in a detail not shown here. Equal values may be shown once. Inconclusive results and toxic doses are left out. Cut-off read from the data, not from the text of the source: active = T/C of 150% or more; inactive = T/C below 125%.

Tested on: L1210 leukemia ip in BDF1 mice, survival T/C
Assay: NCI In Vivo Anticancer Drug Screen. Data for tumor model L1210 Leukemia (intraperitoneal) in B6D2F1 (BDF1) mice
Conditions: endpoint: mean survival time, higher = longer survival
Outline: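 Tumor was transplanted into mice, which were then dosed with test compound or vehicle alone. Survival was recorded for each group, and the treated figure was expressed relative to the control figure.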

[1] = dose: 12.0 mg/kg/injection, schedule: Q01DX009 (ip), vehicle: Klucel (hydroxypropylcellulose) (HPC)
[2] = dose: 25.0 mg/kg/injection, schedule: Q01DX009 (ip), vehicle: Klucel (hydroxypropylcellulose) (HPC)
[3] = dose: 50.0 mg/kg/injection, schedule: Q01DX009 (ip), vehicle: Klucel (hydroxypropylcellulose) (HPC)
[4] = dose: 100.0 mg/kg/injection, schedule: Q04DX003 (ip), vehicle: Klucel (hydroxypropylcellulose) (HPC)
[5] = dose: 200.0 mg/kg/injection, schedule: Q04DX003 (ip), vehicle: Klucel (hydroxypropylcellulose) (HPC)
[6] = dose: 100.0 mg/kg/injection, schedule: Q01DX001 (ip), vehicle: carboxymethylcellulose (CMC)
[7] = dose: 400.0 mg/kg/injection, schedule: Q01DX001 (ip), vehicle: carboxymethylcellulose (CMC)
[8] = dose: 100.0 mg/kg/injection, schedule: Q01DX001 (ip), vehicle: saline
[9] = dose: 200.0 mg/kg/injection, schedule: Q01DX001 (ip), vehicle: saline
[10] = dose: 400.0 mg/kg/injection, schedule: Q01DX001 (ip), vehicle: saline
[11] = dose: 100.0 mg/kg/injection, schedule: Q01DX009 (ip), vehicle: Klucel (hydroxypropylcellulose) (HPC)
[12] = dose: 200.0 mg/kg/injection, schedule: Q01DX009 (ip), vehicle: Klucel (hydroxypropylcellulose) (HPC)
[13] = dose: 50.0 mg/kg/injection, schedule: Q01DX001 (ip), vehicle: saline
[14] = dose: 100.0 mg/kg/injection, schedule: Q01DX009 (ip), vehicle: saline with Tween-80
[15] = dose: 200.0 mg/kg/injection, schedule: Q01DX009 (ip), vehicle: saline with Tween-80
[16] = dose: 400.0 mg/kg/injection, schedule: Q01DX009 (ip), vehicle: Klucel (hydroxypropylcellulose) (HPC)

Measured: T/C

ClN=C(c1ccccc1)c1ccccc1
inactive: [1] 110 % of control | [2] 102 % of control | [3] 107 % of control | [4] 100 % of control | [5] 98 % of control

CC(C)(C)C(=O)CC(=O)C(C)(C)C.CC(C)(C)C(=O)CC(=O)C(C)(C)C.CC(C)(C)C(=O)CC(=O)C(C)(C)C.[Co]
inactive: dose: 100.0 mg/kg/injection, schedule: Q04DX002 (ip), vehicle: gum acacia 107 % of control | dose: 200.0 mg/kg/injection, schedule: Q04DX002 (ip), vehicle: gum acacia 90 % of control | dose: 400.0 mg/kg/injection, schedule: Q04DX002 (ip), vehicle: gum acacia 93 % of control

CNC(Cc1ccccc1)C1CCCCC1 (stereo not drawn)
inactive: dose: 6.0 mg/kg/injection, schedule: Q04DX003 (ip), vehicle: Klucel (hydroxypropylcellulose) (HPC) 93 % of control | [1] 98 % of control | dose: 12.0 mg/kg/injection, schedule: Q04DX003 (ip), vehicle: Klucel (hydroxypropylcellulose) (HPC) 98 % of control | [2] 98 % of control | dose: 25.0 mg/kg/injection, schedule: Q04DX003 (ip), vehicle: Klucel (hydroxypropylcellulose) (HPC) 95 % of control and 109 % of control | [3] 95 % of control

C#CC(=O)c1ccccc1
inactive: dose: 4.7 mg/kg/injection, schedule: Q01DX009 (ip), vehicle: saline with Tween-80 94 % of control | dose: 18.8 mg/kg/injection, schedule: Q01DX001 (ip), vehicle: saline 98 % of control | dose: 37.5 mg/kg/injection, schedule: Q01DX001 (ip), vehicle: saline 104 % of control

Cc1ccc2ccc(/C=N/Nc3ccc4cccc(O)c4n3)c(O)c2n1
inactive: [6] 88 % of control | [7] 88 % of control

Nc1ccc2c(c1)/C(=N/O)c1cc(Br)ccc1-2
inactive: [6] 110 % of control | dose: 200.0 mg/kg/injection, schedule: Q01DX001 (ip), vehicle: carboxymethylcellulose (CMC) 102 % of control | [7] 100 % of control

CCOC(=O)c1ccc(NCc2nnc3nc(N)nc(SCc4ccccc4)c3n2)cc1
inactive: dose: 100.0 mg/kg/injection, schedule: Q01DX001 (ip), vehicle: saline with Tween-80 96 % of control | dose: 200.0 mg/kg/injection, schedule: Q01DX001 (ip), vehicle: saline with Tween-80 98 % of control | dose: 400.0 mg/kg/injection, schedule: Q01DX001 (ip), vehicle: saline with Tween-80 92 % of control

Cc1cc[c]([Hg][I])cc1
inactive: dose: 6.25 mg/kg/injection, schedule: Q01DX009 (ip), vehicle: Klucel (hydroxypropylcellulose) (HPC) 93 % of control | dose: 12.5 mg/kg/injection, schedule: Q01DX009 (ip), vehicle: Klucel (hydroxypropylcellulose) (HPC) 94 % of control | dose: 25.0 mg/kg/injection, schedule: Q04DX002 (ip), vehicle: Klucel (hydroxypropylcellulose) (HPC) 87 % of control

NC(=O)c1ncn(C2CCCC2O)c1N (stereo not drawn)
inactive: [8] 91 % of control | [9] 102 % of control | [10] 86 % of control

Cn1nc(NC(=O)C(C)(C)C)c(C#N)c1C#N
inactive: dose: 50.0 mg/kg/injection, schedule: Q04DX002 (ip), vehicle: saline with Tween-80 95 % of control | dose: 100.0 mg/kg/injection, schedule: Q04DX002 (ip), vehicle: saline with Tween-80 95 % of control | dose: 200.0 mg/kg/injection, schedule: Q04DX002 (ip), vehicle: saline with Tween-80 98 % of control

COc1ccc(OC(=O)Nc2cc(C)ccc2C)cc1
inactive: [11] 91 % of control | [4] 94 % of control | [12] 90 % of control | [5] 97 % of control | dose: 400.0 mg/kg/injection, schedule: Q04DX003 (ip), vehicle: Klucel (hydroxypropylcellulose) (HPC) 108 % of control

CCN(CC)C(=S)[S][Sn]([S]C(=S)N(CC)CC)([c]1ccccc1)[c]1ccccc1
inactive: dose: 100.0 mg/kg/injection, schedule: Q01DX001 (ip), vehicle: other 97 % of control | dose: 200.0 mg/kg/injection, schedule: Q01DX001 (ip), vehicle: other 104 % of control | dose: 400.0 mg/kg/injection, schedule: Q01DX001 (ip), vehicle: other 112 % of control

Cc1[nH]c(=O)[nH]c(=O)c1CN(C)Cc1cc(Cl)cc(Cl)c1O
inactive: [13] 95 % of control | [8] 95 % of control | [9] 95 % of control | [10] 101 % of control

CC(C)(C)c1ccc(OC(=S)N2CCOCC2)cc1
inactive: [14] 98 % of control | dose: 100.0 mg/kg/injection, schedule: Q04DX003 (ip), vehicle: saline with Tween-80 96 % of control | [15] 107 % of control | dose: 200.0 mg/kg/injection, schedule: Q04DX003 (ip), vehicle: saline with Tween-80 96 % of control | dose: 400.0 mg/kg/injection, schedule: Q01DX009 (ip), vehicle: saline with Tween-80 102 % of control | dose: 400.0 mg/kg/injection, schedule: Q04DX003 (ip), vehicle: saline with Tween-80 93 % of control

[Cl][Hg][CH2]CC1CC=CCC1 (stereo not drawn)
inactive: dose: 3.13 mg/kg/injection, schedule: Q01DX009 (ip), vehicle: saline sonified 92 % of control | dose: 6.25 mg/kg/injection, schedule: Q01DX009 (ip), vehicle: saline sonified 94 % of control | dose: 6.25 mg/kg/injection, schedule: Q04DX003 (ip), vehicle: Klucel (hydroxypropylcellulose) (HPC) 98 % of control | dose: 12.5 mg/kg/injection, schedule: Q01DX009 (ip), vehicle: saline sonified 100 % of control | dose: 12.5 mg/kg/injection, schedule: Q04DX003 (ip), vehicle: Klucel (hydroxypropylcellulose) (HPC) 87 % of control

O=C(NC(Cc1ccccc1)C(=O)NCCCCCCCCCCNC(=O)C(Cc1ccccc1)NC(=O)OCc1ccccc1)OCc1ccccc1 (stereo not drawn)
inactive: [13] 92 % of control | [8] 98 % of control | [9] 110 % of control | [10] 104 % of control

COc1cc(OC)c(NC(=O)NC(C)(C)C)cc1Cl
inactive: [11] 93 % of control | [12] 95 % of control | [16] 98 % of control

O=c1[nH]c(=O)n(C2CC=CO2)cc1F (stereo not drawn)
inactive: dose: 100.0 mg/kg/injection, schedule: Q04DX003 (ip), vehicle: saline 111 % of control | dose: 200.0 mg/kg/injection, schedule: Q04DX003 (ip), vehicle: saline 113 % of control | dose: 400.0 mg/kg/injection, schedule: Q04DX003 (ip), vehicle: saline 117 % of control

O=C(O)/C=C/c1ccccc1Br
inactive: [13] 97 % of control | [8] 91 % of control | [11] 102 % of control | [9] 94 % of control | [12] 100 % of control | [10] 97 % of control | [16] 100 % of control

CC(C)(C)C(C)(O)CN (stereo not drawn)
inactive: dose: 100.0 mg/kg/injection, schedule: Q01DX009 (ip), vehicle: saline 95 % of control | dose: 200.0 mg/kg/injection, schedule: Q01DX009 (ip), vehicle: saline 95 % of control | dose: 400.0 mg/kg/injection, schedule: Q01DX009 (ip), vehicle: saline 95 % of control

COC(=O)C(CC/C(=N\NC(N)=O)c1ccccc1)C(=O)OC
inactive: dose: 50.0 mg/kg/injection, schedule: Q01DX009 (ip), vehicle: saline with Tween-80 98 % of control | [14] 98 % of control | [15] 91 % of control

Nc1[nH]c(=O)[nH]c(=O)c1N=Nc1ccc(S(=O)(=O)Nc2ncccn2)cc1
inactive: [8] 94 % of control | [9] 98 % of control | [10] 96 % of control
